Assay results: ChEMBL document CHEMBL3228023, “Paradoxical effects of N-cyanoalkyl substituents upon the activities of several classes of opioids” (J Med Chem, 1979)
Structures can show the parent of a compound that is named as a salt. Activity calls are given as the source filed them. No cut-off for these calls is given here.

Columns and labels:
Mus musculus [1] = assay: Antinociceptive activity in sc dosed mouse by Eddy-hot plate assay; type: functional
Mus musculus [2] = assay: Antinociceptive activity in sc dosed mouse by Nilsen assay; type: functional
Opioid receptor = Opioid receptor (Rattus norvegicus, UniProt P33533+P34975+P33535); assay: Binding affinity to opiate receptor in rat brain homogenates; type: tissue-based
[3] = Binding affinity to opiate receptor in mouse/rat NG108-15 hybrid cells
[4] = Acute toxicity in sc dosed mouse; type: organism-based; conditions: in vivo
Mus musculus [5] = assay: Ratio of morphine ED50 to compound ED50 for antinociceptive activity in sc dosed mouse by Eddy-hot plate assay; type: functional
Mus musculus [6] = assay: Antinociceptive activity in Swiss-webster mouse at 1.6 umol/kg, sc by tail-flick assay; type: functional
Mus musculus [7] = assay: Antinociceptive activity in sc dosed mouse by Eddy-hot plate assay in presence of naloxone; type: functional, organism-based
Mus musculus [8] = assay: Antinociceptive activity in Swiss-webster mouse at 1.6 umol/kg, sc by tail-flick assay in presence of 0.08 to 8.5 umol/kg naloxone; type: functional, organism-based
Rhesus monkey [9] = assay: Acute toxicity in rhesus monkey assessed as salivation at 0.25 to 2 mg/kg by single-dose suppression test; type: organism-based, Macaca mulatta; set-up: dose 0.25-2 mg/kg; conditions: in vivo
Rhesus monkey [10] = assay: Acute toxicity in rhesus monkey assessed as head tremors, covulsiona, ataxia at 2 mg/kg by single-dose suppression test; type: organism-based, Macaca mulatta; set-up: dose 2 mg/kg; conditions: in vivo
Rhesus monkey [11] = assay: Acute toxicity in rhesus monkey assessed as CNS depression at 0.625 to 5 mg/kg by single-dose suppression test in presence of naloxone; type: organism-based, Macaca mulatta, Central nervous system; set-up: dose 0.625-5 mg/kg; conditions: in vivo
Rhesus monkey [12] = assay: Acute toxicity in rhesus monkey assessed as CNS depression at 0.625 to 5 mg/kg by single-dose suppression test; type: organism-based, Macaca mulatta, Central nervous system; set-up: dose 0.625-5 mg/kg; conditions: in vivo
Rhesus monkey [13] = assay: Narcotic antagonist activity in rhesus monkey at 1 to 2 mg/kg by precipitated withdrawal test; type: organism-based, Macaca mulatta; set-up: dose 1-2 mg/kg; conditions: in vivo
Rhesus monkey [14] = assay: Acute toxicity in rhesus monkey assessed as ataxia and mild stupor at 1 to 2 mg/kg by single-dose suppression test; type: organism-based, Macaca mulatta; set-up: dose 1-2 mg/kg; conditions: in vivo
Mus musculus [15] = assay: Ratio of morphine ED50 to compound ED50 for antinociceptive activity in sc dosed mouse by Nilsen assay; type: functional
Rhesus monkey [16] = assay: Acute toxicity in rhesus monkey assessed as minimal CNS depression at 1.5 to 12 mg/kg by single-dose suppression test; type: organism-based, Macaca mulatta, Central nervous system; set-up: dose 1.5-12 mg/kg; conditions: in vivo
Mus musculus [17] = assay: Antinociceptive activity in mouse at 100 mg/kg, sc by Eddy-hot plate assay; type: functional, organism-based; set-up: dose 100 mg/kg
[18] = Therapeutic ratio of LD50 for sc dosed mouse to ED50 for antinociceptive activity in sc dosed mouse by Eddy-hot plate assay; conditions: in vivo
Rhesus monkey [19] = assay: Acute toxicity in rhesus monkey assessed as ataxia at 0.32 to 2.56 mg/kg by single-dose suppression test; type: organism-based, Macaca mulatta; set-up: dose 0.32-2.56 mg/kg; conditions: in vivo
Rhesus monkey [20] = assay: Acute toxicity in rhesus monkey assessed as tremors at 0.64 to 2.56 mg/kg by single-dose suppression test; type: organism-based, Macaca mulatta; set-up: dose 0.64-2.56 mg/kg; conditions: in vivo
Rhesus monkey [21] = assay: Acute toxicity in rhesus monkey assessed as rigidity at 2.56 mg/kg by single-dose suppression test; type: organism-based, Macaca mulatta; set-up: dose 2.56 mg/kg; conditions: in vivo
Rhesus monkey [22] = assay: Narcotic antagonist activity in rhesus monkey at 0.32 to 1.28 mg/kg by precipitated withdrawal test; type: organism-based, Macaca mulatta; set-up: dose 0.32-1.28 mg/kg; conditions: in vivo
Rhesus monkey [23] = assay: Physical dependence capacity in rhesus monkey at 0.16 to 2.56 mg/kg by single-dose suppression test; type: ADME, organism-based, Macaca mulatta; set-up: dose 0.16-2.56 mg/kg; conditions: in vivo
Rhesus monkey [24] = assay: Acute toxicity in rhesus monkey assessed as exacerbation of withdrawal at 0.005 to 0.04 mg/kg by single-dose suppression test; type: organism-based, Macaca mulatta; set-up: dose 0.005-0.04 mg/kg; conditions: in vivo
Rhesus monkey [25] = assay: Acute toxicity in rhesus monkey assessed as salivation at 0.005 to 0.02 mg/kg by single-dose suppression test; type: organism-based, Macaca mulatta; set-up: dose 0.005-0.02 mg/kg; conditions: in vivo
Rhesus monkey [26] = assay: Narcotic antagonist activity in rhesus monkey […]; type: organism-based, Macaca mulatta; conditions: in vivo
Rhesus monkey [27] = assay: Acute toxicity in rhesus monkey assessed as minimal CNS depression at 1.5 to 36 mg/kg by single-dose suppression test; type: organism-based, Macaca mulatta, Central nervous system; set-up: dose 1.5-36 mg/kg; conditions: in vivo
Rhesus monkey [28] = assay: Acute toxicity in rhesus monkey assessed as tremors at 36 mg/kg by single-dose suppression test; type: organism-based, Macaca mulatta; set-up: dose 36 mg/kg; conditions: in vivo
Rhesus monkey [29] = assay: Acute toxicity in rhesus monkey assessed as withdrawal signs at 96 mg/kg by single-dose suppression test; type: organism-based, Macaca mulatta; set-up: dose 96 mg/kg; conditions: in vivo
Rhesus monkey [30] = assay: Acute toxicity in rhesus monkey assessed as withdrawal signs at 24 to 96 mg/kg by precipitated withdrawal test; type: organism-based, Macaca mulatta; set-up: dose 24-96 mg/kg; conditions: in vivo
Mus musculus [31] = assay: Antinociceptive activity in mouse at 100 mg/kg, sc by Nilsen assay; type: functional, organism-based; set-up: dose 100 mg/kg
Rhesus monkey [32] = assay: Acute toxicity in rhesus monkey at 10 to 40 mg/kg by single-dose suppression test; type: organism-based, Macaca mulatta; set-up: dose 10-40 mg/kg; conditions: in vivo
Mus musculus [33] = species on record: Mus musculus
Rhesus monkey [34] = assay: Physical dependence capacity in rhesus monkey at 12 mg/kg by single-dose suppression test; type: ADME, organism-based, Macaca mulatta; set-up: dose 12 mg/kg; conditions: in vivo
Rhesus monkey [35] = assay: Acute toxicity in rhesus monkey at 3 to 12 mg/kg by single-dose suppression test; type: organism-based, Macaca mulatta; set-up: dose 3-12 mg/kg; conditions: in vivo
[36] = Mus musculus, sc, read-out: ED50

## CN1CC[C@]23CCCC[C@H]2[C@H]1Cc1ccc(O)cc13.O=C(O)C(O)C(O)C(=O)O
Mus musculus [1]; [36]
  ED50: 0.49 µmol/kg
Mus musculus [2]; [36]
  ED50: 0.54 µmol/kg
Opioid receptor
  EC50: 0.7 µM
[3]
  EC50: 0.2 µM

## CN1CC[C@]23c4c5ccc(O)c4O[C@H]2[C@@H](O)C=C[C@H]3[C@H]1C5
Mus musculus [1]; [36]
  ED50: 3.3 µmol/kg
Mus musculus [2]; [36]
  ED50: 4.1 µmol/kg
[3]
  EC50: 1.5 µM

## Cl.N#CCCN1CC[C@]23CCCCC2C1Cc1ccc(O)cc13.O (stereo partly specified)
[4]
  LD50: 534 mg/kg
Mus musculus [5]
  Ratio ED50: 50
Mus musculus [6]
  Activity: 100%

## N#CCCN1CC[C@]23CCCCC2C1Cc1ccc(O)cc13 (stereo partly specified)
Mus musculus [7]
  Activity: inactive
Mus musculus [8]
  Activity: inactive

## C[C@H]1C2Cc3ccc(O)cc3C1(C)CCN2CCC#N (mixture of isomers)
Mus musculus [1]
  ED50: 0.26 µmol/kg
Rhesus monkey [9]
  Activity: Toxic
Mus musculus [2]
  ED50: 0.31 µmol/kg
Opioid receptor
  EC50: 3 µM
Rhesus monkey [10]
  Activity: Toxic

## C[C@H]1C2Cc3ccc(O)cc3C1(C)CCN2CC#N (mixture of isomers)
Mus musculus [1]; [36]
  ED50: 22.2 µmol/kg
Mus musculus [2]; [36]
  ED50: 39.1 µmol/kg
Opioid receptor
  EC50: 20 µM
Rhesus monkey [11]
  Activity: Toxic
Rhesus monkey [12]
  Activity: Toxic

## C[C@H]1C2Cc3ccc(O)cc3C1(C)CCN2CCCC#N (mixture of isomers)
Mus musculus [1]; [36]
  ED50: 2.4 µmol/kg
Mus musculus [2]; [36]
  ED50: 1.5 µmol/kg
Opioid receptor
  EC50: 4 µM
Rhesus monkey [13]
  Activity: Toxic
Rhesus monkey [14]
  Activity: Toxic

## Br.C[C@H]1C2Cc3ccc(O)cc3C1(C)CCN2CCC#N (mixture of isomers)
Mus musculus [5]
  Ratio ED50: 12
Mus musculus [15]
  Ratio ED50: 12

## C[C@H]1C2Cc3ccc(O)cc3C1(C)CCN2CCC#N (single isomer, unassigned; (+)) [listing 1 of 2 here]
Rhesus monkey [16]
  Activity: Toxic

## C[C@H]1C2Cc3ccc(O)cc3C1(C)CCN2CCC#N (single isomer, unassigned; (+)) [listing 2 of 2 here]
Mus musculus [17]
  Activity: inactive

## N#CCCN1CC[C@]23CCCCC2C1Cc1ccc(O)cc13 (single isomer, unassigned; (+))
Mus musculus [17]
  Activity: inactive

## C[C@H]1C2Cc3ccc(O)cc3C1(C)CCN2CCC#N (single isomer, unassigned; (-))
Mus musculus [1]
  ED50: 0.11 µmol/kg
Mus musculus [2]
  ED50: 0.03 µmol/kg
Opioid receptor
  EC50: 3 µM
[3]
  EC50: 0.08 µM
[18]
  selectivity ratio: 13000
Rhesus monkey [19]
  Activity: Toxic
Rhesus monkey [20]
  Activity: Toxic
Rhesus monkey [21]
  Activity: Toxic
Rhesus monkey [22]
  Activity: Toxic
Rhesus monkey [23]
  Activity: Non-toxic

## Br.C[C@H]1C2Cc3ccc(O)cc3C1(C)CCN2CCC#N (single isomer, unassigned; (-))
[4]
  LD50: 489 mg/kg

## N#CCCN1CC[C@]23CCCCC2C1Cc1ccc(O)cc13 (single isomer, unassigned; (-))
Mus musculus [1]; [36]
  ED50: 0.07 µmol/kg
Mus musculus [2]; [36]
  ED50: 0.14 µmol/kg
Opioid receptor
  EC50: 1.5 µM
[3]
  EC50: 0.015 µM
[18]
  selectivity ratio: 23000
Rhesus monkey [24]
  Activity: Toxic
Rhesus monkey [25]
  Activity: Toxic

## N#CCN1CC[C@]23CCCCC2C1Cc1ccc(O)cc13 (single isomer, unassigned; (-))
Mus musculus [1]; [36]
  ED50: 5.3 µmol/kg
Mus musculus [2]; [36]
  ED50: 13.2 µmol/kg
Opioid receptor
  EC50: 7 µM

## N#CCCN1CC[C@]23c4c5ccc(O)c4O[C@H]2[C@@H](O)C=CC3C1C5 (single isomer, unassigned; (-))
Mus musculus [1]; [36]
  ED50: 8.3 µmol/kg
Mus musculus [2]; [36]
  ED50: 33 µmol/kg
Opioid receptor
  EC50: 20 µM
[3]
  EC50: 1 µM
Rhesus monkey [26]
  Activity: Toxic
Rhesus monkey [27]
  Activity: Toxic
Rhesus monkey [28]
  Activity: Toxic

## COc1ccc2c3c1O[C@H]1[C@@H](O)C=CC4C(C2)N(CCC#N)CC[C@@]341 (single isomer, unassigned; (-))
Opioid receptor
  EC50: 700 µM
Rhesus monkey [29]
  Activity: Toxic
Rhesus monkey [30]
  Activity: Toxic

## COc1ccc2c3c1O[C@H]1C(=O)CC[C@@]4(O)C(C2)N(CCC#N)CC[C@]314 (single isomer, unassigned; (-))
Mus musculus [31]
  Activity: inactive
Opioid receptor
  EC50: 60 µM
Rhesus monkey [32]
  Activity: Non-toxic
Mus musculus [33]
  ED50: inactive

## Br.CC1C2Cc3ccc(O)cc3C1(C)CCN2C (single isomer, unassigned; (-))
Mus musculus [1]; [36]
  ED50: 2 µmol/kg
Mus musculus [2]; [36]
  ED50: 1.5 µmol/kg
Opioid receptor
  EC50: 4 µM
[3]
  EC50: 0.4 µM

## COc1ccc2c3c1O[C@H]1[C@@H](O)C=C[C@H]4[C@@H](C2)N(C)CC[C@@]341.COc1ccc2c3c1O[C@H]1[C@@H](O)C=C[C@H]4[C@@H](C2)N(C)CC[C@@]341.O.O=P(O)(O)O.O=P(O)(O)O [CODEINE PHOSPHATE]
Mus musculus [1]; [36]
  ED50: 14.6 µmol/kg
Mus musculus [2]; [36]
  ED50: 20.4 µmol/kg
Rhesus monkey [34]
  Activity: Toxic
Rhesus monkey [35]
  Activity: Toxic

## CN1CC[C@]23c4c5ccc(O)c4O[C@H]2C(=O)CC[C@@]3(O)[C@H]1C5 [OXYMORPHONE HYDROCHLORIDE]
Mus musculus [1]; [36]
  ED50: 0.27 µmol/kg
